Results on 7 compounds are retold here after US10259846B2, “Bouvardin derivatives and therapeutic uses thereof” (The Regents of the University of Colorado, a body corporate, priority 2012, dated 2019).

Usually LD50 stands for the dose expected to kill half of the subjects tested. What is called IC50 is the concentration at which inhibition is half-maximal. High values mean weaker potency, low ones greater potency.

The subject of one series is U87MG glioma cells. Put plainly: Cell growth assay (CellTiter-Glo), U87MG glioma cells. Format: cell-based. The note with it: single agent; 10 μM and 100 μM; 6 days (FIG. 10). The method, then:
(§1) Two glioma cell lines were used (U87MG and T98G). The growth inhibitory effects of chemical compounds were evaluated using CellTiter-Glo® Luminescent Cell Viability Assay (Promega G7570). The CellTiter-Glo® Reagent lyses cells and generates a luminescent signal proportional to the amount of ATP present. In this assay, 4,000 viable cells were plated in 100 μL of growth medium in 96-well plates (Corning). Following an overnight incubation, drugs were added in varying concentrations and incubated for 6 days. 100 μL of CellTiter-Glo® Reagent was added to each well. Plates were incubated with mixing at room temperature for 30 minutes. Luminescence of each well was measured using an automated plate reader.

Another series relates to T98G glioma cells. Put plainly: Cell growth assay (CellTiter-Glo), T98G glioma cells. It counts as cell-based. The note with it: for inhibitory effects on cell growth: single agent, 10 μM and 100 μM, 6 days (FIG. 11). The method, then:
as §1
(In general: ATP-based viability assays read luminescence as a measure of living cells.)

The subject of another series is rabbit reticulocytes. The series is described as follows: In vitro translation assay (luciferase mRNA). Format: biochemical. The settings on record: luciferase activity; 15 minutes at 37° C. The method, then:
In vitro translation assays were performed in rabbit reticulocytes (Promega) according to manufacturer's instruction, in the presence or absence of drug at final concentrations shown. Luciferase mRNA provided in the kit was used at a final concentration of 1 μg/μl. The reaction samples were incubated for 15 minutes at 37° C. and quenched by dilution with water. Luciferase activity was measured using a plate reader Multi-Mode Microplate Reader (Synergy 2 by BioTek) immediately after luciferase substrate addition.

Series [1] deals with HS294T melanoma cells. Put plainly: Clonogenic assay (sulfhorhodamine B), HS294T. Format: cell-based, human. The method, then: HS294T melanoma cells were plated at a low concentration to allow for the formation of single colonies. These cells were then treated with meta Br-N-29-H RA-VII alone, PLX4032 alone and a combination of the two and then processed using the quantitative sulfhorhodamine B assay.

The test system of the next series is mice. The settings on record: cited from earlier work.
For series [2], the system named is A375 (higher grade) melanoma cell line. The series is described as follows: Cell growth assay IC50, A375 melanoma cell line. It counts as cell-based, human. The method, then:
as §1, with “Seven cell lines, lung cancer cell line H157, HNC” for “Two glioma”, “lines Det562 and FaDu, and melanoma cell lines WM35, A375, 1205Lu and HS294T” for “lines”, “studied.” for “used (U87MG and T98G).”, “˜4,000” for “4,000”, “reader. Survival was plotted against drug concentration to compute IC50.” for “reader.”
(§2) The ability of bouvardin and meta Br-N-29-H RA-VII to inhibit the growth of Melanoma cells in culture was studied. […] Both compounds show greater efficacy in higher grade, metastatic melanoma cell lines than in a lower grade melanoma line.

Series [3] relates to WM35 (lower grade, radial phase) melanoma cell line. Put plainly: Cell growth assay IC50, WM35 melanoma cell line. It counts as cell-based, human. The method, then:
as §1, with “Seven cell lines, lung cancer cell line H157, HNC” for “Two glioma”, “lines Det562 and FaDu, and melanoma cell lines WM35, A375, 1205Lu and HS294T” for “lines”, “studied.” for “used (U87MG and T98G).”, “˜4,000” for “4,000”, “reader. Survival was plotted against drug concentration to compute IC50.” for “reader.”
as §2

Series [4] concerns HS294T melanoma cells. The series is described as follows: Exposure-time cell viability assay, HS294T. The note with it: IC70 concentration; viability read after 5 days. It counts as cell-based, human. The method, then: (§3) The cell growth assays used to measure IC50 and synergy involve leaving the drug on the cells for 5 days. However, this length of time may or may not be necessary to see efficacy. To address this, two Bouvardin derivatives (meta Br-N-29-H RA-VII and mera Cl-N-29-H RA-VII) were exposed to different melanoma and head and neck cells for various amounts of time. Cells were plated at 4,000 cells per well in 96 well plates and allowed to adhere for 24 hrs before adding meta Br-N-29-H RA-VII or meta Cl-N-29-H RA-VII at an IC70 concentration for each cell line. The drug was removed after various times (12 hr, 1 day, 2 days, 3 days, 4 days) by replacement with fresh media. After 5 days, cell viability was determined using CellTiter-Glo® Luminescent Cell Viability Assay (Promega G7570), which measures ATP levels. Bouvardin or BVD at 12 hr exposure was used as a control. […] While the maximal effect of meta Br-N-29-H RA-VII was not reached at the same time for all of the lines, the drug is affecting each cell line to some degree by 24 hrs.

The test system of series [5] is HS294T metastatic melanoma cells. The series is described as follows: Combination with PLX4032, combination index, HS294T. It counts as cell-based, human. The settings on record: combination with PLX4032, wide range of drug concentrations. An excerpt:
The dotted line indicates fraction survival expected if meta Br-N-29-H RA-VII and PLX4032 are act in an additive manner. The observed effect of the combination is […], indicating synergy. This represents a subset of a larger data set that includes the result of a wide range of drug doses. The complete dataset is in FIGS. 16 and 17.
CI of less than 1 indicates synergy, which is seen for a wide range of drug concentrations. […] This illustrates that at doses that show synergy, significant fractions of cells are killed or inhibited from growing.

Another series relates to Melanoma cells. Put plainly: Growth inhibition of Melanoma cells in culture, alone and combined. It counts as cell-based, human.
From the text: as §2
Synergy is seen in cell lines with a wide range of sensitivity to PLX4032, i.e. both PLX4032-sensitive and PLX4032-resistant lines.

Another series deals with A375 melanoma cells. The series is described as follows: Exposure-time cell viability assay, A375. Format: cell-based, human. The note with it: IC70 concentration; viability read after 5 days. The method, then: as §3
Series [6] deals with HS294T melanoma cells. The series is described as follows: Combination with ionizing radiation, combination index, HS294T. Format: cell-based, human. The settings on record: range of drug doses and radiation. From the text: CI values are shown for a range of drug doses and radiation. CI<1 indicates synergy.
Series [7] in a line: Combination Index from cell growth assays with targeted agents (FIG. 22). Format: cell-based. The note with it: over a range of FA (fraction affected). The method, then: The combinations of meta Br-N-29-H RA-VII and three commercially available targeted agents (PLX4032 BRAF inhibitor, TAK-333 MEK inhibitor and PF-0491502 P13K/TOR dual inhibitor) were tested at various drug doses. Combination Index values were computed from cell growth assays as previously described (Gladstone et al., Disease Models and Mechanisms, 2012, PMID: 22344740). The tables show average CI values for the combination of meta Br-N-29-H RA-VII and each targeted agent. FA=‘fraction affected’ or fraction of cells killed, reflecting the drug doses used. The CI values that indicate three modes on drug-drug interaction are indicated in the legend and differentially shaded in the table. CI˜1 denote additive action (un-shaded). CI>1 denote antagonistic action (darker shade).

The subject of another series is 1205Lu melanoma cells. The series is described as follows: Exposure-time cell viability assay, 1205Lu. It counts as cell-based, human. The note with it: IC70 concentration; viability read after 5 days. The method, then: as §3
Series [8] concerns FaDu Head and Neck cancer cells. Put plainly: Exposure-time cell viability assay, FaDu. The note with it: IC70 concentration; viability read after 5 days. Format: cell-based, human. The method, then:
as §3

Series [9] concerns Det562 Head and Neck cancer cells. The series is described as follows: Exposure-time cell viability assay, Det562. It counts as cell-based, human. The settings on record: IC70 concentration; viability read after 5 days. The method, then:
as §3

The subject of series [10] is human primary fibroblasts. The note with it: published report (Dolma et al., 2003); cited from earlier work.
In series [11] the test system is human primary fibroblasts. The series is described as follows: Bouvardin on primary versus oncogene-transformed human fibroblasts. The note with it: fibroblasts transformed with more and more oncogenes (FIG. 16). It counts as cell-based.
Where [12] appears, read: combination of meta Br-N-29-H RA-VII and PLX4032.

Like-named read-outs stand apart in the source and are kept apart here.

Turning to `COc1ccc(C[C@H](NC(=O)[C@H](Cc2ccc(O)cc2)N(C)C(=O)OC(C)(C)C)C(=O)OCc2ccccc2)cc1Br` [Compound 1-7], the “inhibitory effects on cell growth” value in the series on U87MG glioma cells and in the series on T98G glioma cells was “potent inhibitory effects” each time. Also, the “inhibition of protein translation in in vitro translation assay” value (shortened to “inhibition of protein translation”) in the series with rabbit reticulocytes was “do not appear to inhibit protein translation”.
For the compound `COc1ccc(C[C@H](NC(=O)[C@H](Cc2ccc(O)cc2)N(C)C(=O)OC(C)(C)C)C(=O)OCc2ccccc2)cc1B1OC(C)(C)C(C)(C)O1` [Compound 1-8], the “inhibitory effects on cell growth” value in the series on U87MG glioma cells and in the series on T98G glioma cells was “potent inhibitory effects” throughout. Moreover, in the series with rabbit reticulocytes, the “inhibition of protein translation” value is listed as “do not appear to inhibit protein translation”.
Turning to `COc1ccc(C[C@H](NC(=O)[C@H](Cc2ccc(O)cc2)N(C)C(=O)OC(C)(C)C)C(=O)OCc2ccccc2)cc1B(O)O` [Compound 1-9], the “inhibitory effects on cell growth” value with U87MG glioma cells and in the series on T98G glioma cells was “potent inhibitory effects” each time. In the series on rabbit reticulocytes, the “inhibition of protein translation” value is listed as “do not appear to inhibit protein translation”.
Take `CCCS(=O)(=O)Nc1ccc(F)c(C(=O)c2c[nH]c3ncc(-c4ccc(Cl)cc4)cc23)c1F` [PLX4032, Vemurafenib, reference compound]: the “survival compared to untreated cells” value in the series on HS294T melanoma cells [1] (500 nM, alone) was “around 60%”.
For `COc1cccc2c1C(=O)c1c(O)c3c(c(O)c1C2=O)C[C@@](O)(C(=O)CO)C[C@@H]3O[C@H]1C[C@H](N)[C@H](O)[C@H](C)O1` [doxorubicin], the LD50 in the series on mice is on record as 12.5 mg/kg.
Take `COc1ccc(C[C@H]2C(=O)N[C@@H](C)C(=O)N(C)[C@H]3Cc4ccc(cc4)Oc4cc(c(Br)cc4OC)C[C@H](NC3=O)C(=O)N[C@H](C)C(=O)N[C@@H](C)C(=O)N2C)cc1` [meta Br-N-29-H RA-VII]: the IC50 is 100 nM in [2] (Homo sapiens, A-375) and 1170 nM in series [3] (Homo sapiens). The “exposure time to maximal response (same as 5 day)” value was 3 to 4 days in the series with HS294T melanoma cells [4], 2 to 3 days in the series on A375 melanoma cells and 4 days with 1205Lu melanoma cells. The “response at 12 hr exposure” value with HS294T melanoma cells [4] was “partial response”; with A375 melanoma cells, “partial response”; with 1205Lu melanoma cells, “partial response”; in [8], “no response”; in series [9] it was “partial response”. In addition, the “interaction with PLX4032 (combination index; CI of less than 1 indicates synergy)” value in [5] is recorded as “synergize”. For the same compound, the “times less effective (greater IC50) than bouvardin” value in the series on Melanoma cells (Melanoma cells) is recorded as 5 to 10 times. Further, the “synergy with BRAF inhibitor Vemurafenib (PLX4032)” value in the series on Melanoma cells (combination, PLX4032-sensitive and PLX4032-resistant lines) was “synergizes best and over a wide range of meta Br-N-29-H RA-VII doses”. Also, the “interaction with ionizing radiation (combination index; CI<1 indicates synergy)” value in the series on HS294T melanoma cells [6] is “shows synergy”. The “interaction (average Combination Index) with PF-0491502 P13K/TOR dual inhibitor” value in series [7] was “displays synergy”. Besides, in series [7], the “interaction (average Combination Index) with PLX4032 BRAF inhibitor” value was “displays synergy”. In series [7], the “interaction (average Combination Index) with TAK-333 MEK inhibitor” value is “displays synergy”. Besides, the “survival compared to untreated cells” value in the series on HS294T melanoma cells [1] (20 nM, alone) is on record as “greater than 90%”; with HS294T melanoma cells [1] (setting [12]), “less than 20%”. Further, the “predicted survival if the two treatments were additive” value in the series on HS294T melanoma cells [1] (setting [12]) is reported as 50%. Further, the “exposure time to maximal response” value in series [8] and in series [9] was 4 days each time. Also, in the series on T98G glioma cells (T98G glioma cells (FIG. 12)), the “response in cell growth assay” value was “dose-dependent response”. Also, the “inhibition of protein translation” value in the series with rabbit reticulocytes was “dose-dependent response”.
With bouvardin, the IC50 in [2] was determined as 12 nM; in series [3], 124 nM. Besides, in series [10], the “IC50 in primary human cells versus transformed cells” value was “higher IC50 (lower efficacy) in primary human cells than in transformed cells”. Moreover, the “IC, for bouvardin” value in series [11] was “decreases as human primary fibroblasts are transformed with more and more oncogenes”. The LD50 with mice is reported as 12.4 mg/kg.
